Test results taken from US20050282743A1, “Molecular interactions in cells” (Arbor Vita Corporation, priority 2001, published 2005).
Like-named read-outs stand apart in the source and are kept apart here. One block for each compound: values may come before it. Ends that are not written are not given here. Peptide text beside a SMILES is read from it. * marks the point of attachment. Biotin = O=C1N[C@H]2[C@H](CS[C@H]2CCCCC(=O)*)N1

Key:
Assay type in all cases: binding
[1] = molecular target: T1, PDZ protein (GST-PDZ fusion) (Homo sapiens, UniProt P57105); test: G' assay (10 uM PL peptide), results of TABLE 7 and TABLE 12; details: PDZ Outer Membrane, PDZ Domain 1
T1 construct: made in house; host or cells: E. coli (DH5alpha, BL21 or JM109)
T1 sequence (P57105 1-145): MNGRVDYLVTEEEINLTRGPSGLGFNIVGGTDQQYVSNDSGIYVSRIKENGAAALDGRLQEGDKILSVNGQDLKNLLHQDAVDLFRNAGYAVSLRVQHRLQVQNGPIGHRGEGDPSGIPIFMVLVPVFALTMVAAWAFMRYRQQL
Method in brief: (§1)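 Same steps as the G-zero format, apart from a peptide concentration of 10 uM in place of 20 uM in step 2. Amino-terminally biotinylated PL peptides bind GST-PDZ fusions, and retained peptide is quantified by 450 nm absorbance.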

[2] = molecular target: PDZ-domain polypeptide (GST/PDZ fusion protein); test: Apparent affinity (Kd) by titration of PL peptide in the G assay
Method in brief: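 A fixed concentration of GST/PDZ fusion protein, 5 ug/ml by default, was mixed in solution with increasing labeled PL peptide (e.g. 0.1 uM-1 mM). Reaction times ranged from 10 minutes to 2 days at 4-37° C. Complexes were separated from free peptide and detected via the label as in the G assay, apparent affinity coming from the saturating concentration.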

[3] = molecular target: T2, PDZ protein (GST-PDZ fusion) (Homo sapiens, UniProt Q13796); test: G' assay (10 uM PL peptide), results of TABLE 7 and TABLE 12; details: PDZ hAPXL, PDZ Domain 1
T2 construct: made in house; host or cells: E. coli (DH5alpha, BL21 or JM109)
Method in brief: as §1

[4] = molecular target: T3, PDZ protein (GST-PDZ fusion) (Homo sapiens, UniProt Q9P202); test: as above; details: PDZ KIAA1526, PDZ Domain 1
T3 construct: made in house; host or cells: E. coli (DH5alpha, BL21 or JM109)
T3 sequence (Q9P202 1-907): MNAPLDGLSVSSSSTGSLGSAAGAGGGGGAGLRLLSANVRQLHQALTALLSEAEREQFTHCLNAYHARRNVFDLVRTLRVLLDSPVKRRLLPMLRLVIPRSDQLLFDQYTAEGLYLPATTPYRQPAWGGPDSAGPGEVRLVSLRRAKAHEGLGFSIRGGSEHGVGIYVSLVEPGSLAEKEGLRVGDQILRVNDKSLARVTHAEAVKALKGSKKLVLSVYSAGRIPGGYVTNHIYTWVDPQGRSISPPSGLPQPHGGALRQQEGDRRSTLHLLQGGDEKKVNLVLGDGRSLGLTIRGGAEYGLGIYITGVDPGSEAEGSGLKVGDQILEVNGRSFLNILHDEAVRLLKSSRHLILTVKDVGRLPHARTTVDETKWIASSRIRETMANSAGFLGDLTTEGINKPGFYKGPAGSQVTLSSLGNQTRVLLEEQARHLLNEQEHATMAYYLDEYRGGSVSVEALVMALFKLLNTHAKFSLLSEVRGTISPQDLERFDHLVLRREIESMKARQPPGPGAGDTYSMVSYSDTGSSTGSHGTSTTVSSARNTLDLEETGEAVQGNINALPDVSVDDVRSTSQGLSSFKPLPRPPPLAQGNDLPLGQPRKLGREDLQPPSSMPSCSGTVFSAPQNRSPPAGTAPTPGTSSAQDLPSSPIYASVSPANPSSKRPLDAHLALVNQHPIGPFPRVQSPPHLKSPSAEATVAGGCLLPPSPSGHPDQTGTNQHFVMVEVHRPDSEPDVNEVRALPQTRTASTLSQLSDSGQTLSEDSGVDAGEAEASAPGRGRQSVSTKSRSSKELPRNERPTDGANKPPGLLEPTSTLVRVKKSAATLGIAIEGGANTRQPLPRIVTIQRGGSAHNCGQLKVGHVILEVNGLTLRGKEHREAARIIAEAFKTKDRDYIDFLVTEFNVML
Method in brief: as §1

[5] = molecular target: T4, PDZ protein (GST-PDZ fusion) (Homo sapiens, UniProt Q9NZN5); test: as above; details: PDZ KIAA0382, PDZ Domain 1
T4 construct: made in house; host or cells: E. coli (DH5alpha, BL21 or JM109)
Method in brief: as §1

[6] = PDZ BAI-1, PDZ Domain 2, read-out: Peptide Optimal Conc (Kd by titration of the PL peptide)

T2 sequence (Q13796 whole entry, the tested form may be a part): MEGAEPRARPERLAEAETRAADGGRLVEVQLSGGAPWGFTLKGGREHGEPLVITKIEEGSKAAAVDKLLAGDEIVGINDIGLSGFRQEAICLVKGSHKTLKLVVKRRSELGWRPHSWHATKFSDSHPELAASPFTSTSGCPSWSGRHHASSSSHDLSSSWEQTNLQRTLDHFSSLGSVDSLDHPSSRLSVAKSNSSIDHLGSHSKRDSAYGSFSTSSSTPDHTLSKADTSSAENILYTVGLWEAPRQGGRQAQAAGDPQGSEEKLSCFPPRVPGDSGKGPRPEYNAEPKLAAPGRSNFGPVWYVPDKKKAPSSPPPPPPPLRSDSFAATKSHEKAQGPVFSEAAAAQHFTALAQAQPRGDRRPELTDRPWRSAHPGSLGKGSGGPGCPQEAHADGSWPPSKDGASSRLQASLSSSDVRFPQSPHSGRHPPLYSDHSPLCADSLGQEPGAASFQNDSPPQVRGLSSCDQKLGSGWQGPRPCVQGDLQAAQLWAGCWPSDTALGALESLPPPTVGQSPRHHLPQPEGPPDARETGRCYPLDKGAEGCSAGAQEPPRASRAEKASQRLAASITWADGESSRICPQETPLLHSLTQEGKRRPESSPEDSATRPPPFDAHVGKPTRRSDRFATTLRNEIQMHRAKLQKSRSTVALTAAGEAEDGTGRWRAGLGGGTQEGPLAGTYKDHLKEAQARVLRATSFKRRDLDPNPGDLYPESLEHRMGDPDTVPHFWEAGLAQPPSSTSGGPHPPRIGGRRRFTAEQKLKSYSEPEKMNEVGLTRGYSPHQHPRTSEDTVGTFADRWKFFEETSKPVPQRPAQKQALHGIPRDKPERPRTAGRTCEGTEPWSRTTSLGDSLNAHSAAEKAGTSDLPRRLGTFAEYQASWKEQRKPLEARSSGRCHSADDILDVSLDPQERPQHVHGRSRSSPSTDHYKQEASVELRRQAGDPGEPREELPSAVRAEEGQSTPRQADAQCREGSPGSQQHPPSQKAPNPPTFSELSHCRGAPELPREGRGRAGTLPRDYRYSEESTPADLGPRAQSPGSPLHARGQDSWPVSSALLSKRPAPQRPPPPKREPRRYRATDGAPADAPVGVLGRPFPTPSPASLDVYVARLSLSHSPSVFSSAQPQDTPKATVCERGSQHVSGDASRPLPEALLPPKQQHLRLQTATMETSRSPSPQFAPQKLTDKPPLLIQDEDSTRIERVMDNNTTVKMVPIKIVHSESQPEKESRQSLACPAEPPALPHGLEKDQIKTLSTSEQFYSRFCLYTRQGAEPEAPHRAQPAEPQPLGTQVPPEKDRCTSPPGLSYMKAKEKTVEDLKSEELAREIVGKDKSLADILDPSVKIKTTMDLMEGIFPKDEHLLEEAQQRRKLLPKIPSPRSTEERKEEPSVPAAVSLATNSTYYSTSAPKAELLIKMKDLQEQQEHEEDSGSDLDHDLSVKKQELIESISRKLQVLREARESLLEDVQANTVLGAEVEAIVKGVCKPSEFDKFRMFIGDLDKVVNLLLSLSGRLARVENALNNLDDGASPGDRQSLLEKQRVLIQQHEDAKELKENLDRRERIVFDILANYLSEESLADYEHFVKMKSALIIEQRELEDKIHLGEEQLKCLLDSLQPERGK
T4 sequence (Q9NZN5 whole entry, the tested form may be a part): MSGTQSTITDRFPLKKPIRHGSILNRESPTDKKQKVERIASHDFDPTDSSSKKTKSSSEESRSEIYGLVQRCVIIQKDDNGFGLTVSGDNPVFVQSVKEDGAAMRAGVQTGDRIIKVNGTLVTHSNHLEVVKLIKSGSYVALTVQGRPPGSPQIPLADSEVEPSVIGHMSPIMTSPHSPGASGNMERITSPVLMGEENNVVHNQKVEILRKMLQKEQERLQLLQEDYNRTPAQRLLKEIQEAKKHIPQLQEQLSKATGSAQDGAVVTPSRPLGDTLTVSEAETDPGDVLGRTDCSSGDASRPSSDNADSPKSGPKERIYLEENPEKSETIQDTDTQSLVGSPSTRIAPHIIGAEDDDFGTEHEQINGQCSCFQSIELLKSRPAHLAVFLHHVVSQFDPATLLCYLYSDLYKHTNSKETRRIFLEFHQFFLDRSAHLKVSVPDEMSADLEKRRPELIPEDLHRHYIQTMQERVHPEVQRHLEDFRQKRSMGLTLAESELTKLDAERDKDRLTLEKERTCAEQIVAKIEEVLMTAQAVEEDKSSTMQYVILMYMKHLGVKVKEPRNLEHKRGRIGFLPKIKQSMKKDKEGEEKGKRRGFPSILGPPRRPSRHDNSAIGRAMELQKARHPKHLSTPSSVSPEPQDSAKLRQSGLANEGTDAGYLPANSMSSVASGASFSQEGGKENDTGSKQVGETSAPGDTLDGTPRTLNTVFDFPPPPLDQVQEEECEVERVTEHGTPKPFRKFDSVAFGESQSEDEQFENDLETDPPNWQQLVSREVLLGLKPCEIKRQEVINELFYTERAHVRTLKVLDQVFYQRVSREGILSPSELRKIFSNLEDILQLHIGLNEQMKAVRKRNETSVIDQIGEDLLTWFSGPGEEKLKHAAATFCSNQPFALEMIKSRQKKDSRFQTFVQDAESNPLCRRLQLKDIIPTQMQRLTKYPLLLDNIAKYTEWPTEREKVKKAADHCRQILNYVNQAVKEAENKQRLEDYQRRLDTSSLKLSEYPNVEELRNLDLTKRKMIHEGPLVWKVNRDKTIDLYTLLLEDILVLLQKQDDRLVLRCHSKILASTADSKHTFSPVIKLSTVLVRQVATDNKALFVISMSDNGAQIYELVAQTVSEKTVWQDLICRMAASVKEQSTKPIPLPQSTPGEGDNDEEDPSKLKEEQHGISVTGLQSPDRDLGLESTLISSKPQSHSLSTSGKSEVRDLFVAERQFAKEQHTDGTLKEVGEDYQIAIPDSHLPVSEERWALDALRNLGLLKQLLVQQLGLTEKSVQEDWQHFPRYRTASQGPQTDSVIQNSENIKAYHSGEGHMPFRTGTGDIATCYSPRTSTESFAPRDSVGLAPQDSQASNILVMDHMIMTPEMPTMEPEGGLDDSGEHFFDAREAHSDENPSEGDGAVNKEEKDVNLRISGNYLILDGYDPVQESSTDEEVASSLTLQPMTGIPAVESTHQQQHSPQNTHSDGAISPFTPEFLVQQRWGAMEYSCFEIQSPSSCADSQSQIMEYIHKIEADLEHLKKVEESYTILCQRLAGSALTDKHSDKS

Compound: CC[C@H](C)[C@H](NC(=O)[C@H](CC(=O)O)NC(=O)[C@H](CCC(=O)O)NC(=O)[C@H](CCCNC(=N)N)NC(=O)[C@@H](NC(=O)CCCC[C@@H]1SC[C@@H]2NC(=O)N[C@@H]21)[C@@H](C)O)C(=O)N[C@@H](Cc1ccc(O)cc1)C(=O)N[C@H](C(=O)N[C@@H](CC(N)=O)C(=O)N[C@@H](Cc1ccc(O)cc1)C(=O)N1CCC[C@H]1C(=O)N[C@H](C(=O)N[C@@H](Cc1ccccc1)C(=O)N[C@@H](CO)C(=O)N[C@@H](CCCNC(=N)N)C(=O)N[C@@H](CCCNC(=N)N)C(=O)N1CCC[C@H]1C(=O)N[C@@H](CCCCN)C(=O)N[C@H](C(=O)N[C@@H](CCCNC(=N)N)C(=O)N[C@H](C(=O)O)C(C)C)[C@@H](C)O)[C@@H](C)O)C(C)C [DNAM-1] (Biotin-TREDIYVNYPTFSRRPKTRV-OH; C-terminus assumed)
- Classification [1]: 1 (A450 nm 0-1)
- Kd [2, 6]: 4000 nM

Compound: CC(C)C[C@H](NC(=O)[C@H](C)NC(=O)[C@H](CO)NC(=O)CNC(=O)[C@@H](NC(=O)CCCC[C@@H]1SC[C@@H]2NC(=O)N[C@@H]21)[C@@H](C)O)C(=O)N[C@@H](CCC(N)=O)C(=O)N[C@@H](C)C(=O)N[C@@H](Cc1c[nH]c2ccccc12)C(=O)N[C@@H](CCCNC(=N)N)C(=O)N[C@@H](Cc1c[nH]cn1)C(=O)N[C@H](C(=O)N[C@@H](CO)C(=O)N[C@@H](CCCNC(=N)N)C(=O)N[C@@H](CCC(N)=O)C(=O)N[C@@H](C)C(=O)N[C@H](C(=O)N[C@@H](CCC(=O)O)C(=O)N[C@@H](CO)C(=O)N[C@H](C(=O)N[C@H](C(=O)O)C(C)C)[C@@H](C)O)[C@@H](C)O)[C@@H](C)O [HPV E6 #66 (modified)] (Biotin-TGSALQAWRHTSRQATESTV-OH; C-terminus assumed)
- Classification [1]: 5 (A450 nm of 4 more than 2× repeated)
- Classification [3]: 1 (A450 nm 0-1)
- Classification [4]: 1 (A450 nm 0-1)
- Kd [2, 6]: 3000 nM

- Classification [5]: 1 (A450 nm 0-1)
Compound: KTMPAAMFRLLTGQETPLYI (Biotin-KTMPAAMFRLLTGQETPLYI) [MINT-2]

- Classification [1]: 1 (A450 nm 0-1)
- Classification [3]: 5 (A450 nm of 4 more than 2× repeated)
- Classification [4]: 1 (A450 nm 0-1)
- Kd ([2]; PDZ TAX IP2, PDZ Domain 1, titration of the PL peptide, read-out: Peptide Optimal Conc (Kd, dissociation constant)): 2500 nM
Compound: CC(C)C[C@H](NC(=O)[C@H](CC(=O)O)NC(=O)[C@H](CO)NC(=O)[C@H](CCC(=O)O)NC(=O)CNC(=O)[C@H](Cc1ccc(O)cc1)NC(=O)[C@H](CC(C)C)NC(=O)[C@H](C)NC(=O)[C@H](CO)NC(=O)[C@H](CO)NC(=O)[C@H](Cc1ccccc1)NC(=O)[C@H](C)NC(=O)[C@H](C)NC(=O)[C@H](Cc1ccc(O)cc1)NC(=O)[C@H](CC(=O)O)NC(=O)[C@H](CC(C)C)NC(=O)[C@H](C)NC(=O)CNC(=O)[C@@H]1CCCN1C(=O)[C@@H](NC(=O)CCCC[C@@H]1SC[C@@H]2NC(=O)N[C@@H]21)C(C)C)C(=O)O [a-actinin 2] (Biotin-VPGALDYAAFSSALYGESDL-OH; C-terminus assumed)

- Kd ([2]; PDZ HEMBA 1003117, PDZ Domain 1, read-out: Peptide Optimal Conc (Kd by titration of the PL peptide)): 300 nM
Compound: CC(C)C[C@H](NC(=O)[C@H](Cc1c[nH]c2ccccc12)NC(=O)[C@H](Cc1c[nH]cn1)NC(=O)[C@H](CCCNC(=N)N)NC(=O)[C@H](CC(C)C)NC(=O)[C@@H](NC(=O)[C@H](Cc1ccccc1)NC(=O)[C@H](CCC(N)=O)NC(=O)[C@H](CCCNC(=N)N)NC(=O)[C@@H](NC(=O)[C@H](CCC(=O)O)NC(=O)CNC(=O)[C@H](CCCNC(=N)N)NC(=O)[C@H](CC(=O)O)NC(=O)[C@@H](NC(=O)[C@H](CC(C)C)NC(=O)[C@H](CCC(=O)O)NC(=O)[C@H](CCCNC(=N)N)NC(=O)CCCC[C@@H]1SC[C@@H]2NC(=O)N[C@@H]21)C(C)C)C(C)C)[C@@H](C)O)C(=O)N[C@@H](CCCCN)C(=O)N[C@H](C(=O)O)C(C)C [Dopamine transporter (Na+-dependent)] (Biotin-RELVDRGEVRQFTLRHWLKV-OH; C-terminus assumed)

- Classification [5]: 1 (A450 nm 0-1)
Compound: QATSRNGHSARQHVVADTEL (Biotin-QATSRNGHSARQHVVADTEL) [CD34]

- Kd ([2]; PDZ HEMBA 1003117, PDZ Domain 1, titration of the PL peptide, read-out: Peptide Optimal Conc (Kd, dissociation constant)): 4000 nM
Compound: CC[C@H](C)[C@H](NC(=O)[C@H](Cc1ccc(O)cc1)NC(=O)[C@H](CC(C)C)NC(=O)[C@H](CCC(N)=O)NC(=O)[C@H](Cc1c[nH]cn1)NC(=O)[C@H](CO)NC(=O)[C@H](C)NC(=O)[C@H](CC(C)C)NC(=O)[C@@H](NC(=O)[C@H](CC(=O)O)NC(=O)[C@H](CCSC)NC(=O)[C@H](Cc1ccccc1)NC(=O)[C@@H]1CCCN1C(=O)[C@H](CCCNC(=N)N)NC(=O)[C@@H](NC(=O)[C@H](CC(C)C)NC(=O)[C@H](CC(N)=O)NC(=O)[C@H](CC(=O)O)NC(=O)[C@@H](NC(=O)[C@H](CO)NC(=O)CCCC[C@@H]1SC[C@@H]2NC(=O)N[C@@H]21)[C@@H](C)O)C(C)C)[C@@H](C)O)C(=O)O [presenilin-2] (Biotin-STDNLVRPFMDTLASHQLYI-OH; C-terminus assumed)

- Kd ([2]; PDZ BAI-1, PDZ Domain 3, read-out: Peptide Optimal Conc (Kd by titration of the PL peptide)): 2000 nM
Compound: CC(C)C[C@H](NC(=O)[C@H](CC(C)C)NC(=O)[C@@H](NC(=O)[C@H](CC(=O)O)NC(=O)CCCC[C@@H]1SC[C@@H]2NC(=O)N[C@@H]21)[C@@H](C)O)C(=O)N[C@@H](CC(C)C)C(=O)N[C@H](C(=O)N[C@@H](CCC(=O)O)C(=O)N[C@@H](CC(N)=O)C(=O)N[C@@H](CCC(=O)O)C(=O)NCC(=O)N[C@@H](CC(=O)O)C(=O)N[C@@H](CCCCN)C(=O)N[C@H](C(=O)N[C@@H](CCC(=O)O)C(=O)N[C@@H](CCC(=O)O)C(=O)N[C@@H](CCC(N)=O)C(=O)N[C@H](C(=O)N[C@@H](CO)C(=O)N[C@@H](Cc1ccc(O)cc1)C(=O)N[C@H](C(=O)O)C(C)C)C(C)C)[C@@H](C)O)[C@@H](C)O [5H2B_HUMAN] (Biotin-DTLLLTENEGDKTEEQVSYV-OH; C-terminus assumed)

Compound: CC[C@H](C)[C@H](NC(=O)[C@H](CO)NC(=O)[C@@H](NC(=O)[C@H](Cc1ccccc1)NC(=O)[C@H](CO)NC(=O)CCCC[C@@H]1SC[C@@H]2NC(=O)N[C@@H]21)[C@@H](C)O)C(=O)N[C@@H](CC(C)C)C(=O)N[C@H](C(=O)N[C@@H](CS)C(=O)N[C@@H](Cc1c[nH]cn1)C(=O)N[C@@H](CCC(N)=O)C(=O)N[C@@H](CCCNC(=N)N)C(=O)N[C@@H](CCCNC(=N)N)C(=O)N[C@H](C(=O)N[C@@H](CCC(N)=O)C(=O)N[C@@H](CCCNC(=N)N)C(=O)N[C@@H](CCCCN)C(=O)N[C@@H](CCC(=O)O)C(=O)N[C@H](C(=O)N[C@H](C(=O)N[C@@H](C)C(=O)O)C(C)C)[C@@H](C)O)[C@@H](C)O)[C@@H](C)O [GluR5-2 (rat)]
- Kd ([2]; PDZ BAI-1, PDZ Domain 2, titration of the PL peptide, read-out: Peptide Optimal Conc (Kd, dissociation constant)): 300 nM

- Classification [5]: 1 (A450 nm 0-1)
Compound: CC[C@H](C)[C@H](NC(=O)[C@H](Cc1ccc(O)cc1)NC(=O)[C@@H](NC(=O)[C@@H]1CCCN1C(=O)[C@H](CCC(N)=O)NC(=O)[C@H](CCC(=O)O)NC(=O)[C@H](CCC(N)=O)NC(=O)[C@H](C)NC(=O)[C@@H](NC(=O)[C@H](CC(C)C)NC(=O)[C@H](CC(C)C)NC(=O)[C@H](CCCNC(=N)N)NC(=O)[C@H](Cc1ccc(O)cc1)NC(=O)[C@H](CCSC)NC(=O)[C@H](C)NC(=O)[C@H](C)NC(=O)[C@@H]1CCCN1C(=O)[C@H](CCSC)NC(=O)[C@@H](NC(=O)[C@H](CCCCN)NC(=O)CCCC[C@@H]1SC[C@@H]2NC(=O)N[C@@H]21)[C@@H](C)O)[C@@H](C)O)C(C)C)C(=O)O [MINT-1] (Biotin-KTMPAAMYRLLTAQEQPVYI-OH; C-terminus assumed)

- Classification [3]: 2 (A450 nm 1-2)
- Classification [5]: 1 (A450 nm 0-1)
Compound: LASKSAEEGKQIPDSLSTDL (Biotin-LASKSAEEGKQIPDSLSTDL) [Dock2]
